Test results: ChEMBL document CHEMBL4680139, “Antiproliferative activity of diarylnaphthylpyrrolidine derivative via dual target inhibition” (Eur J Med Chem, 2020)

Assays:
MCF7 [1] = experiment: Antiproliferative activity against human MCF-7 cells assessed as proportion of live cells at 25 ug/ml measured after 3 weeks by crystal violet staining based soft agar colony formation assay (reference value: 100%); type: functional; conditions: dose 25 µg/ml
MCF7 [2] = experiment: Induction of apoptosis in human MCF-7 cells at 4.33 uM by propidium iodide staining based flow cytometry (reference value: 2.1%); type: functional
MCF7 [3] = experiment: Induction of apoptosis in human MCF-7 cells at 8.66 uM by propidium iodide staining based flow cytometry (reference value: 2.1%); type: functional
MCF7 [4] = experiment: Induction of apoptosis in human MCF-7 cells assessed as proportion of necrotic cells at 2.17 uM measured after 24 hrs by Annexin V- FITC/propidium iodide staining based flow cytometry (reference value: 5.3%); type: functional
MDA-MB-231 = experiment: Induction of apoptosis in human MDA-MB-231 cells assessed as proportion of late apoptotic cells at 5.21 uM measured after 24 hrs by Annexin V-FITC/propidium iodide staining based flow cytometry (reference value: 0.5%); type: functional
[5] = Toxicity in Swiss albino mouse assessed as WBC level in blood at 5 mg/kg, po administered as single dose (reference value: 17.06 +/- 1.33x10^3/mm3); type: organism-based; conditions: in vivo
[6] = Toxicity in Swiss albino mouse assessed as cholesterol level in serum at 5 mg/kg, po administered as single dose (reference value: 103.62 +/-7.45 mg/dl); type: organism-based; conditions: in vivo
[7] = Toxicity in Swiss albino mouse assessed as RBC level in blood at 50 mg/kg, po administered as single dose (reference value: 10.56 +/- 1.22x10^6/mm3); type: organism-based; conditions: in vivo
[8] = Toxicity in Swiss albino mouse assessed as SGPT level in serum at 300 mg/kg, po administered as single dose (reference value: 21.81 +/-2.1 U/L); type: organism-based; conditions: in vivo
[9] = Toxicity in Swiss albino mouse assessed as absolute and relative heart weight at 5 to 300 mg/kg, po administered as single dose; type: organism-based; conditions: in vivo, dose 5-300 mg/kg

COc1ccc(C(c2ccccc2OCCN2CCCC2)c2cccc3ccccc23)c(OC)c1OC (stereo not given)
Activity (MCF7 [1]): 20.64%
Activity (MCF7 [2]): 4.7%
Activity (MCF7 [3]): 11.4%
Activity (MCF7 [4]): 5%
Activity (MDA-MB-231): 3.5%
Activity [5]: 11.11 10^3/mm3
Activity [6]: 111.17 mg/dL
Activity [7]: 9.84 million/mm3
Activity [8]: 22.34 U/L
Activity [9]: Non-Toxic
